The values that follow come from PMC12683216, “Using High‐Throughput Screening to Identify Crosslinking Peptides That Control Cell‐Mediated Matrix Degradation” (Advanced Healthcare Materials, 2025).

Common to all, as to format: in vitro ADME, human
What all share (conditions): human, 24 h, LC-MS

Data set [1] is described as follows: Soluble peptide degradation, Cells condition (LC-MS). As to the method:
(§1) Most in vitro protease activity assays incubate the peptides or proteins of interest with a single protease in a buffered solution. However, the kinetics of protease activity in tissues are complex and highly regulated, and both the activity^[ [37] ^] and substrate specificity^[ [38] ^] of proteases can be modulated through association with other proteins.^[ [39] ^] Most MMP‐substrate peptides are also cleaved by multiple proteases,^[ [5] ^] and within the context of biomaterials, the most important factor is typically how the combined activity of all proteases, rather than the activity of any specific protease, modifies the local microenvironment versus the activity due to any individual enzyme. We synthesized peptides identified in the TAILS proteomic screen that were present on proteins that are known to be secreted or found on the cell membrane, pooled them, and added them either to cell culture media on top of cells, the “Cells” condition, or conditioned media lacking cells, the “Media” condition (Figure 2A). The fraction of peptides remaining after 24 h in each condition was then quantified using LC‐MS. Soluble proteases should be present in both conditions, however, membrane‐type proteases should primarily be found in the samples containing cells and not the conditioned media samples. A key benefit of this approach is that it surveys the total functional proteolytic activity, including the effects of inhibitors and co‐factors, and quantifies the degradation rate of soluble peptides by the complete secretome of different cell types.
(§2) hUVECs (75000 per well) or hMSCs (36000 per well) were seeded into a 48 well plate, and 500 µL media was added to the wells. […] The peptide libraries were dissolved at a stock solution of 10 mM total peptide content. For libraries containing 38 peptides, 95 µL of the stock solution was added to each well; for libraries with 19 peptides, 47.5 µL was added to each well, and media was taken at 0 and 24 h. Add 4 µL of acetic acid to all collected media in the LC‐MS plates and store them in a −80 °C freezer to prevent further proteolytic degradation. From each sample, 10 µL of crude solution was introduced by the LC‐MS through a Thermo Scientific Vanquish LC System (Thermo Fisher Scientific), which outputted to a Thermo Scientific LTQ XL Linear Ion Trap Mass Spectrometer (Thermo Fisher Scientific). The sampled mixture was trapped on a column (ProntoSIL C18 AQ, 120 Å, 3 µm, 2.0 x 50 mm HPLC Column, PN 0502F184PS030, MAC‐MOD Analytical Inc.). The samples were loaded onto the column with a solvent containing acetonitrile/water, 5:95 (v/v) containing 1% acetic acid at a flow rate of 300 µL min^−1 and held for 1 min. The sample was then eluted from the column with a linear gradient of 5–40% Solvent B (1% acetic acid in acetonitrile) at the same flow rate for 5 min. This was followed by a 1 min ramp up to 100% Solvent B, where it was re‐equilibrated with Solvent A (1% acetic acid) to 5% solvent B over the course of 1 min and held there for 2 min. The column temperature was kept at a constant 29 °C, and the mass spectrometer was operated in positive ion mode. Using a Heated ESI, the Source Voltage was set to 4.1 kV, and the capillary temperature was 350 °C. For non‐library degradation studies, 2.5 µL of 10 mM peptide stock solution for each peptide was added.
In the MMP‐14 inhibitor study, the MMP‐14 inhibitor NSC 405 020 (Cayman Chemical Company) was dissolved in DMSO to make a 10 mM stock solution and stored in −20 °C freezer. 0.5 µL MMP‐14 inhibitor stock solution was added to each well to achieve a 10 µM final concentration.
For all degradation studies using soluble peptides, a non‐proteolytically degradable NH2‐βFβAβAβAβAβAβA‐amide (βFβA6) peptide, where βF is β‐phenylalanine and βA is β‐alanine, was added at a 50 µM concentration and used as an internal standard. Peptide degradation ratios were measured by LC‐MS and analyzed by Xcalibur. […]

The nature of data set [2]: Soluble peptide degradation, Media condition (cell-conditioned media, LC-MS). As to the method:
as §1, §2
(§3) To assess the activity of the conditioned media, the media were divided into two equal portions. One portion was used for a standard degradation study, while the other was cultured for an additional 24 h before the PanMMP and KLVADLMASAE were added. After 24 h of incubation, the media were collected for further analysis. To assess the impact of recombinant MMP‐14 on PanMMP and KLVADLMASAE, recombinant MMP‐14 (antibodies.com) was dissolved in the media at a concentration of 0.5 nM. The remaining steps followed the standard degradation study protocol. […]

Assay in data set [3]: as above
As to the method: as §1, §2, §3
The source holds these as a separate data set.

Where [4] appears, read: hMSCs in culture with fresh media (Cells condition), Figure 3B heatmap, split-and-pool libraries KLVADX1X2ASAE (19 or 38 peptides per library) in media on hMSCs, ratio to βFβA6, N = 2, read-out: Fraction of peptide remaining after 24 hours: hMSC Cells.
Where [5] appears, read: hUVECs in culture with fresh media (Cells condition), Figure 3B heatmap, split-and-pool libraries KLVADX1X2ASAE in media on hUVECs, ratio to βFβA6, N = 2, read-out: Fraction of peptide remaining after 24 hours: hUVEC Cells.
[6] abbreviates: hMSC-conditioned media without cells (Media condition), Figure 3B heatmap, split-and-pool libraries KLVADX1X2ASAE in hMSC-conditioned media without cells, ratio to βFβA6, N = 2, read-out: Fraction of peptide remaining after 24 hours: hMSC Media.
Setting [7] is: hUVEC-conditioned media without cells (Media condition), Figure 3B heatmap, split-and-pool libraries KLVADX1X2ASAE in hUVEC-conditioned media without cells, ratio to βFβA6, N = 2, read-out: Fraction of peptide remaining after 24 hours: hUVEC Media.
Where [8] appears, read: hMSCs in culture with fresh media (Cells condition), Figure 2B heatmap, pooled TAILS-derived soluble peptides (Ac-βAla N-terminus, βAla-amide C-terminus) in media on hMSCs (36000 per well, 48 well plate, 500 µL), ratio to βFβA6 internal standard, 24 h / 0 h, N = 5, read-out: Fraction of peptide remaining at 24 hours: hMSC Cells.
Where [9] appears, read: Figure 2B heatmap, pooled TAILS-derived soluble peptides in 24 h hMSC-conditioned media without cells, ratio to βFβA6 internal standard, 24 h / 0 h, N = 5, read-out: Fraction of peptide remaining at 24 hours: hMSC Media.
The mark [10] stands for this setting: Figure 2B heatmap, pooled TAILS-derived soluble peptides in 24 h hUVEC-conditioned media without cells, ratio to βFβA6 internal standard, 24 h / 0 h, N = 5, read-out: Fraction of peptide remaining at 24 hours: hUVEC Media.
[11] abbreviates: hUVECs in culture with fresh media (Cells condition), Figure 2B heatmap, pooled TAILS-derived soluble peptides in media on hUVECs (75000 per well, 48 well plate, 500 µL), ratio to βFβA6 internal standard, 24 h / 0 h, N = 5, read-out: Fraction of peptide remaining at 24 hours: hUVEC Cells.

Where a SMILES comes first, the peptide text is derived from it. [ ]: non-standard residue; d: D form. βAla = NCCC(=O)O

Turning to `CC(=O)NCCC(=O)N[C@@H](CCCCN)C(=O)N[C@@H](CC(C)C)C(=O)N[C@H](C(=O)N[C@@H](C)C(=O)N[C@@H](CC(=O)O)C(=O)N1CCC[C@H]1C(=O)N[C@H](C(=O)N[C@@H](C)C(=O)N[C@@H](CO)C(=O)N[C@@H](C)C(=O)N[C@@H](CCC(=O)O)C(=O)NCCC(N)=O)C(C)C)C(C)C` [Pro-Val] (Ac-[βAla]KLVADPVASAE[βAla]-NH2), the fraction remaining at 24 h in data set [1] (setting [4]) is 51%; in data set [1] (setting [5]), 92%; in data set [2] (setting [6]), 84%; in data set [3] (setting [7]), 100%.
With `CC(=O)NCCC(=O)N[C@@H](CCCCN)C(=O)N[C@@H](CC(C)C)C(=O)N[C@H](C(=O)N[C@@H](C)C(=O)N[C@@H](CC(=O)O)C(=O)N[C@@H](CO)C(=O)N[C@@H](CC(=O)O)C(=O)N[C@@H](C)C(=O)N[C@@H](CO)C(=O)N[C@@H](C)C(=O)N[C@@H](CCC(=O)O)C(=O)NCCC(N)=O)C(C)C` [Ser-Asp] (Ac-[βAla]KLVADSDASAE[βAla]-NH2), the amount remaining at 24 h in data set [1] (setting [4]) is 48%; in data set [1] (setting [5]) it was 84%; in data set [2] (setting [6]) it was 71%; in data set [3] (setting [7]) it was 94%.
The corresponding values for `CSCC[C@H](NC(=O)[C@H](CC(=O)O)NC(=O)[C@H](C)NC(=O)[C@@H](NC(=O)[C@H](CC(C)C)NC(=O)[C@H](CCCCN)NC(=O)CCNC(C)=O)C(C)C)C(=O)N[C@@H](Cc1c[nH]cn1)C(=O)N[C@@H](C)C(=O)N[C@@H](CO)C(=O)N[C@@H](C)C(=O)N[C@@H](CCC(=O)O)C(=O)NCCC(N)=O` [Met-His] (Ac-[βAla]KLVADMHASAE[βAla]-NH2) are 46%, 90%, 74% and 100%.
The corresponding values for `CC(=O)NCCC(=O)N[C@@H](CCCCN)C(=O)N[C@@H](CC(C)C)C(=O)N[C@H](C(=O)N[C@@H](C)C(=O)N[C@@H](CC(=O)O)C(=O)N1CCC[C@H]1C(=O)N[C@@H](Cc1c[nH]c2ccccc12)C(=O)N[C@@H](C)C(=O)N[C@@H](CO)C(=O)N[C@@H](C)C(=O)N[C@@H](CCC(=O)O)C(=O)NCCC(N)=O)C(C)C` [Pro-Trp] (Ac-[βAla]KLVADPWASAE[βAla]-NH2) are 38%, 81%, 66% and 94%.
For `CC(=O)NCCC(=O)N[C@@H](C)C(=O)N[C@@H](CO)C(=O)N[C@@H](C)C(=O)N1CCC[C@H]1C(=O)N[C@@H](C)C(=O)N[C@@H](CCCNC(=N)N)C(=O)N1CCC[C@H]1C(=O)N[C@@H](C)C(=O)N[C@@H](CC(C)C)C(=O)N[C@@H](CO)C(=O)NCCC(N)=O` [ASAPARPALS] (Ac-[βAla]ASAPARPALS[βAla]-NH2), the results for the share remaining at 24 h in data set [1] (setting [8]), in data set [2] (setting [9]) and in data set [3] (setting [10]) were 88%, 96% and 94%, respectively.
Regarding `CC[C@H](C)[C@H](NC(=O)[C@@H](NC(=O)[C@H](CCSC)NC(=O)[C@@H]1CCCN1C(=O)[C@H](CCCCN)NC(=O)[C@H](CCCCN)NC(=O)CCNC(C)=O)[C@@H](C)O)C(=O)N[C@@H](C)C(=O)N[C@@H](CCCNC(=N)N)C(=O)N[C@@H](CC(C)C)C(=O)N[C@@H](CC(N)=O)C(=O)N[C@@H](C)C(=O)N[C@@H](CCCCN)C(=O)N[C@@H](CCCCN)C(=O)NCCC(N)=O` [KKPMTIARLNAKK] (Ac-[βAla]KKPMTIARLNAKK[βAla]-NH2), the share remaining at 24 h in data set [1] (setting [8]) is 75%; in data set [1] (setting [11]), 73%; in data set [2] (setting [9]), 94%; in data set [3] (setting [10]), 74%.
Regarding `CSCC[C@H](NC(=O)[C@H](CCC(=O)O)NC(=O)CNC(=O)[C@H](Cc1ccccc1)NC(=O)[C@H](CO)NC(=O)[C@H](Cc1ccc(O)cc1)NC(=O)[C@@H](NC(=O)[C@H](CCC(=O)O)NC(=O)CCNC(C)=O)C(C)C)C(=O)N1CCC[C@H]1C(=O)N[C@@H](Cc1c[nH]c2ccccc12)C(=O)NCCC(N)=O` [EVYSFGEMPW] (Ac-[βAla]EVYSFGEMPW[βAla]-NH2), the figures for the fraction remaining at 24 h in data set [1] (setting [8]), in data set [1] (setting [11]) and in data set [2] (setting [9]) were 22%, 70% and 78%, respectively.
On to `CC[C@H](C)[C@H](NC(=O)CCNC(C)=O)C(=O)N[C@H](C(=O)N[C@@H](CCCCN)C(=O)N[C@H](C(=O)N[C@@H](CC(=O)O)C(=O)N[C@H](C(=O)N1CCC[C@H]1C(=O)N[C@@H](CC(=O)O)C(=O)N[C@@H](CCSC)C(=O)N[C@H](C(=O)NCCC(N)=O)C(C)C)[C@@H](C)CC)[C@@H](C)O)C(C)C` [IVKTDIPDMV] (Ac-[βAla]IVKTDIPDMV[βAla]-NH2), for which the amount remaining at 24 h in data set [1] (setting [8]) was determined as 96%; in data set [1] (setting [11]), 106%; in data set [2] (setting [9]) it was 101%; in data set [3] (setting [10]), 102%.
Regarding `CC[C@H](C)[C@H](NC(=O)[C@H](CCC(=O)O)NC(=O)[C@H](C)NC(=O)[C@H](CC(C)C)NC(=O)[C@H](C)NC(=O)[C@H](CC(=O)O)NC(=O)CCNC(C)=O)C(=O)N[C@@H](CC(C)C)C(=O)N[C@@H](CCC(N)=O)C(=O)N[C@@H](C)C(=O)N[C@@H](CC(N)=O)C(=O)N[C@@H](CC(=O)O)C(=O)NCCC(N)=O` [DALAEILQAND] (Ac-[βAla]DALAEILQAND[βAla]-NH2), the figures for the share remaining at 24 h in data set [1] (setting [8]), in data set [1] (setting [11]) and in data set [2] (setting [9]) were 81%, 84% and 90%, respectively.
